Source: ChEMBL document CHEMBL1135036, “Synthesis and antibacterial evaluation of novel 2-[N-Imidoylpyrrolidinyl] carbapenems” (Bioorg Med Chem Lett, 2002)
In brackets after ≈: the same amount, converted by molar mass.

How the values were obtained:
Proteus vulgaris = experiment: In vitro antibacterial activity against Proteus vulgaris IAM 1025.; type: functional
Pseudomonas aeruginosa [1] = experiment: In vitro antibacterial activity against Ps. auruginosa 26.; type: functional
Staphylococcus aureus [2] = experiment: In vitro antibacterial activity against Staphylococcus aureus 3004 Methicillin-resistant Staphylococcus aureus.; type: functional
[3] = target: T1, Dipeptidase 1 (Sus scrofa) (UniProt P22412); experiment: Tested for stability of compound to swine renal DHP-1 relative to imipenem (IMP); type: functional
T1 sequence (whole entry): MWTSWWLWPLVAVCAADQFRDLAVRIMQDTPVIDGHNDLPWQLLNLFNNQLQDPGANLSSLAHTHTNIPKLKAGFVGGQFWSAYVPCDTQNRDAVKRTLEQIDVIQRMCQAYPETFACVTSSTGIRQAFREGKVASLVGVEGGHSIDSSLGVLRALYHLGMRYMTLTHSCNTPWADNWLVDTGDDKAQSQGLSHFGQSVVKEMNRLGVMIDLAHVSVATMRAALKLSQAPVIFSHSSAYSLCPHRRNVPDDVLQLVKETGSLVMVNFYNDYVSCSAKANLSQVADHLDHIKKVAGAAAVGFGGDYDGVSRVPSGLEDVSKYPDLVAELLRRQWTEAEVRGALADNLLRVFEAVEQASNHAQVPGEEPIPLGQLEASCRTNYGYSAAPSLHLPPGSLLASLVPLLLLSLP

[4] = Tested for urinary recovery in mice after subcutaneous administration of 20 mg/Kg; type: ADME, organism-based; details: mouse, urine, sc, read-out: Recovery
Staphylococcus aureus [5] = experiment: In vitro antibacterial activity against Staphylococcus aureus 209P JC-1.; type: functional
Escherichia coli = experiment: In vitro antibacterial activity against Escherichia coli NIHJ JC-2.; type: functional
Pseudomonas aeruginosa [6] = experiment: Tested in vitro for antibacterial activity against Ps. aeruginosa 26; type: functional
[7] = target: T2, Dipeptidase 1 (Homo sapiens) (UniProt P16444); experiment: Compound stability against human renal DHP-1 relative to imipenem (IMP); type: functional
T2 sequence (whole entry): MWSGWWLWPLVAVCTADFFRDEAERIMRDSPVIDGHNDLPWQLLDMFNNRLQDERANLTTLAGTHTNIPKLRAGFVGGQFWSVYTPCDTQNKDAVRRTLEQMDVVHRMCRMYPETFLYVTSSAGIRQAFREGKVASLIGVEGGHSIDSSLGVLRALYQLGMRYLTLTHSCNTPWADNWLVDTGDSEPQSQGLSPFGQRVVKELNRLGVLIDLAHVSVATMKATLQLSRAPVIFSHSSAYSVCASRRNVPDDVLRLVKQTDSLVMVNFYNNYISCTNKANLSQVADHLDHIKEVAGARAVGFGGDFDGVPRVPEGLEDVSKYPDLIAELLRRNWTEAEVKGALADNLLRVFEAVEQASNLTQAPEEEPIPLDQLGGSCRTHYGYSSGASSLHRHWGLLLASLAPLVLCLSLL

[8] = target: T2, Dipeptidase 1 (Homo sapiens); experiment: Tested for stability of compound to human renal DHP-1 relative to imipenem (IMP); type: functional

C[C@@H](O)[C@H]1C(=O)N2C(C(=O)O)=C([C@@H]3CCN(C(=N)CO)C3)C[C@H]12
MIC (Proteus vulgaris): 3.13 µg/mL (≈ 9.68 µM)
MIC (Pseudomonas aeruginosa [1]): 0.78 µg/mL (≈ 2.41 µM)
MIC (Staphylococcus aureus [2]): 25 µg/mL (≈ 77.3 µM)
Stability [3]: 13%
dose excreted [4]: 52%
MIC (Staphylococcus aureus [5]): < 0.025 µg/mL
MIC (Escherichia coli): 0.39 µg/mL (≈ 1.21 µM)

C[C@@H](O)[C@H]1C(=O)N2C(C(=O)O)=C(C3CCNCC3)C[C@H]12
MIC (Proteus vulgaris): 12.5 µg/mL (≈ 44.6 µM)
MIC (Staphylococcus aureus [2]): > 100 µg/mL
Stability [3]: 18%
dose excreted [4]: 43%
MIC (Staphylococcus aureus [5]): 0.05 µg/mL (≈ 0.178 µM)
MIC (Pseudomonas aeruginosa [6]): 0.78 µg/mL (≈ 2.78 µM)
MIC (Escherichia coli): 1.56 µg/mL (≈ 5.56 µM)

CC(=N)N1CC[C@@H](C2=C(C(=O)O)N3C(=O)[C@H]([C@@H](C)O)[C@H]3C2)C1
MIC (Proteus vulgaris): 1.56 µg/mL (≈ 5.08 µM)
MIC (Pseudomonas aeruginosa [1]): 0.78 µg/mL (≈ 2.54 µM)
MIC (Staphylococcus aureus [2]): 6.25 µg/mL (≈ 20.3 µM)
Stability [7]: 34%
Stability [3]: 8.4%
dose excreted [4]: 44%
MIC (Staphylococcus aureus [5]): < 0.025 µg/mL
MIC (Escherichia coli): 0.2 µg/mL (≈ 0.651 µM)

C[C@@H](O)[C@H]1C(=O)N2C(C(=O)O)=C(SCCNC=N)C[C@H]12 [IMIPENEM ANHYDROUS]
MIC (Proteus vulgaris): 3.1 µg/mL (≈ 10.4 µM)
MIC (Pseudomonas aeruginosa [1]): 0.78 µg/mL (≈ 2.61 µM)
MIC (Staphylococcus aureus [2]): 100 µg/mL (≈ 334 µM)
Stability [7]: 100%
Stability [3]: 100%
MIC (Staphylococcus aureus [5]): < 0.025 µg/mL
MIC (Escherichia coli): 0.78 µg/mL (≈ 2.61 µM)

C[C@@H](O)[C@H]1C(=O)N2C(C(=O)O)=C(C3CNC3)C[C@H]12
MIC (Proteus vulgaris): 3.13 µg/mL (≈ 12.4 µM)
MIC (Pseudomonas aeruginosa [1]): 1.56 µg/mL (≈ 6.18 µM)
MIC (Staphylococcus aureus [2]): 100 µg/mL (≈ 396 µM)
Stability [3]: 2%
dose excreted [4]: 45%
MIC (Staphylococcus aureus [5]): 0.05 µg/mL (≈ 0.198 µM)
MIC (Escherichia coli): 1.56 µg/mL (≈ 6.18 µM)

C[C@@H](O)[C@H]1C(=O)N2C(C(=O)O)=C([C@H]3CCNC3)C[C@H]12
MIC (Proteus vulgaris): 6.25 µg/mL (≈ 23.5 µM)
MIC (Pseudomonas aeruginosa [1]): 0.78 µg/mL (≈ 2.93 µM)
MIC (Staphylococcus aureus [2]): 100 µg/mL (≈ 376 µM)
Stability [7]: 78%
Stability [3]: 16%
dose excreted [4]: 46%
MIC (Staphylococcus aureus [5]): < 0.025 µg/mL
MIC (Escherichia coli): 0.39 µg/mL (≈ 1.46 µM)

C[C@@H](O)[C@H]1C(=O)N2C(C(=O)O)=C([C@@H]3CCN(C=N)C3)C[C@H]12
MIC (Proteus vulgaris): 1.56 µg/mL (≈ 5.32 µM)
MIC (Pseudomonas aeruginosa [1]): 0.2 µg/mL (≈ 0.682 µM)
MIC (Staphylococcus aureus [2]): 25 µg/mL (≈ 85.2 µM)
Stability [7]: 39%
Stability [3]: 15%
dose excreted [4]: 41%
MIC (Staphylococcus aureus [5]): < 0.025 µg/mL
MIC (Escherichia coli): 0.1 µg/mL (≈ 0.341 µM)

C[C@@H](O)[C@H]1C(=O)N2C(C(=O)O)=C([C@@H]3CCN(C(=N)COC(N)=O)C3)C[C@H]12
MIC (Proteus vulgaris): 1.56 µg/mL (≈ 4.26 µM)
MIC (Pseudomonas aeruginosa [1]): 0.78 µg/mL (≈ 2.13 µM)
MIC (Staphylococcus aureus [2]): 6.25 µg/mL (≈ 17.1 µM)
Stability [7]: 13%
dose excreted [4]: 42%
MIC (Staphylococcus aureus [5]): < 0.025 µg/mL
MIC (Escherichia coli): 0.1 µg/mL (≈ 0.273 µM)

C[C@@H](O)[C@H]1C(=O)N2C(C(=O)O)=C([C@@H]3CCN(C4=NCCC4)C3)C[C@H]12
MIC (Proteus vulgaris): 1.56 µg/mL (≈ 4.68 µM)
MIC (Pseudomonas aeruginosa [1]): 0.39 µg/mL (≈ 1.17 µM)
MIC (Staphylococcus aureus [2]): 12.5 µg/mL (≈ 37.5 µM)
Stability [7]: 28%
Stability [3]: 8.4%
dose excreted [4]: 50%
MIC (Staphylococcus aureus [5]): < 0.025 µg/mL
MIC (Escherichia coli): 0.2 µg/mL (≈ 0.6 µM)

C[C@@H](O)[C@H]1C(=O)N2C(C(=O)O)=C(SCCN=CN)C[C@H]12 [IMIPENEM ANHYDROUS]
dose excreted [4]: 29%

CC(=N)N1CC[C@H](SC2=C(C(=O)O)N3C(=O)[C@H]([C@@H](C)O)[C@H]3C2)C1 [PANIPENEM]
MIC (Proteus vulgaris): 1.56 µg/mL (≈ 4.6 µM)
MIC (Pseudomonas aeruginosa [1]): 0.39 µg/mL (≈ 1.15 µM)
MIC (Staphylococcus aureus [2]): 50 µg/mL (≈ 147 µM)
dose excreted [4]: 25%
MIC (Staphylococcus aureus [5]): 0.025 µg/mL (≈ 0.0737 µM)
MIC (Escherichia coli): 0.2 µg/mL (≈ 0.589 µM)

C[C@@H](O)[C@H]1C(=O)N2C(C(=O)O)=C(C3CCCNC3)C[C@H]12 (stereo partly drawn)
MIC (Proteus vulgaris): 25 µg/mL (≈ 89.2 µM)
MIC (Pseudomonas aeruginosa [1]): 1.56 µg/mL (≈ 5.56 µM)
MIC (Staphylococcus aureus [2]): 50 µg/mL (≈ 178 µM)
Stability [8]: 4.4%
dose excreted [4]: 59%
MIC (Staphylococcus aureus [5]): < 0.025 µg/mL
MIC (Escherichia coli): 0.39 µg/mL (≈ 1.39 µM)

C[C@@H](O)[C@H]1C(=O)N2C(C(=O)O)=C([C@@H]3CCN(C(=N)CNC(N)=O)C3)C[C@H]12
MIC (Proteus vulgaris): 3.13 µg/mL (≈ 8.57 µM)
MIC (Pseudomonas aeruginosa [1]): 0.39 µg/mL (≈ 1.07 µM)
MIC (Staphylococcus aureus [2]): 25 µg/mL (≈ 68.4 µM)
Stability [7]: 20%
dose excreted [4]: 47%
MIC (Staphylococcus aureus [5]): < 0.025 µg/mL
MIC (Escherichia coli): 0.2 µg/mL (≈ 0.547 µM)

C[C@@H](O)[C@H]1C(=O)N2C(C(=O)O)=C([C@@H]3CCN(C(=N)CC(N)=O)C3)C[C@H]12
MIC (Proteus vulgaris): 1.56 µg/mL (≈ 4.45 µM)
MIC (Pseudomonas aeruginosa [1]): 0.39 µg/mL (≈ 1.11 µM)
MIC (Staphylococcus aureus [2]): 6.25 µg/mL (≈ 17.8 µM)
Stability [7]: 14%
Stability [3]: 13%
dose excreted [4]: 43%
MIC (Staphylococcus aureus [5]): < 0.025 µg/mL
MIC (Escherichia coli): 0.39 µg/mL (≈ 1.11 µM)

C[C@@H](O)[C@H]1C(=O)N2C(C(=O)O)=C(C3CCNC3)C[C@H]12 (stereo partly drawn)
MIC (Proteus vulgaris): 12.5 µg/mL (≈ 46.9 µM)
MIC (Pseudomonas aeruginosa [1]): 0.78 µg/mL (≈ 2.93 µM)
MIC (Staphylococcus aureus [2]): 100 µg/mL (≈ 376 µM)
Stability [7]: 58%
Stability [3]: 13%
dose excreted [4]: 42%
MIC (Staphylococcus aureus [5]): < 0.025 µg/mL
MIC (Escherichia coli): 0.39 µg/mL (≈ 1.46 µM)

C/C(=C\[C@@]1(C)CCCN1)C1=C(C(=O)O)N2C(=O)[C@H]([C@@H](C)O)[C@H]2C1
MIC (Proteus vulgaris): 1.56 µg/mL (≈ 4.87 µM)
MIC (Pseudomonas aeruginosa [1]): 3.13 µg/mL (≈ 9.77 µM)
MIC (Staphylococcus aureus [2]): 50 µg/mL (≈ 156 µM)
Stability [7]: 45%
Stability [3]: 4.3%
dose excreted [4]: 61%
MIC (Staphylococcus aureus [5]): < 0.025 µg/mL
MIC (Escherichia coli): 0.39 µg/mL (≈ 1.22 µM)

C[C@@H](O)[C@H]1C(=O)N2C(C(=O)O)=C([C@@H]3CCNC3)C[C@H]12
MIC (Proteus vulgaris): 6.25 µg/mL (≈ 23.5 µM)
MIC (Pseudomonas aeruginosa [1]): 0.39 µg/mL (≈ 1.46 µM)
MIC (Staphylococcus aureus [2]): 50 µg/mL (≈ 188 µM)
Stability [7]: 48%
Stability [3]: 8.8%
dose excreted [4]: 37%
MIC (Staphylococcus aureus [5]): < 0.025 µg/mL
MIC (Escherichia coli): 0.2 µg/mL (≈ 0.751 µM)

C/N=C/N1CC[C@@H](C2=C(C(=O)O)N3C(=O)[C@H]([C@@H](C)O)[C@H]3C2)C1
MIC (Proteus vulgaris): 0.78 µg/mL (≈ 2.54 µM)
MIC (Pseudomonas aeruginosa [1]): 0.39 µg/mL (≈ 1.27 µM)
MIC (Staphylococcus aureus [2]): 3.13 µg/mL (≈ 10.2 µM)
Stability [7]: 91%
Stability [3]: 7.8%
dose excreted [4]: 48%
MIC (Staphylococcus aureus [5]): < 0.025 µg/mL
MIC (Escherichia coli): 0.2 µg/mL (≈ 0.651 µM)
